Measurements: US12116424B2, “Compounds and compositions for modulating Listeria virulence” (priority 2021, dated 2024)
Where a SMILES comes first, the peptide text is derived from it. Bridges are numbered along the chain shown (N, C = ends). [ ]: non-standard residue; d: D form. dDap = NC[C@@H](N)C(=O)O; Dap = NC[C@H](N)C(=O)O

Target: L. monocytogenes AgrC (Listeria monocytogenes serovar 1/2a, UniProt Q8YAR5)
Assay: Fluorescence (agr-GFP) reporter agonism assay, ΔagrD reporter strain
Format: cell-based
Set-up: Emax: dose or concentration left out as unconfirmed
Settings: for Emax: read-out: Max Activation Observed; for agonism activity (in words): ΔagrD reporter; for loss in potency: agonism, relative to native AIP
Source text: Construction of Listeria agr Reporter Strains. A gene block was designed and purchased from Integrated DNA Technologies to contain an EagI recognition site, the PII promoter of the agr system, the 3′ UTR of hly, super folder GFP, and a SaII recognition site. The gene block was digested with EagI and SaII, cloned into an EagI/SaII-cut pAM401 plasmid resulting in the plasmid pAM401-KW1, and then transformed into E. coli XL1-Blue competent cells. The insertion into pAM401 was confirmed using Kapa polymerase and primers DAP337 and DAP338, and additional confirmation via commercial sequencing. Purified plasmid was transformed into the conjugative E. coli S17 strain, which was used to conjugate to EGD-e and EGD-e ΔagrD to generate the agr-GFP reporter strains EGD-e:pAM401-KW1 and EGD-e ΔagrD:pAM401-KW1. Conjugation was verified using primers DAP337 and DAP338.
Fluorescence reporter assay protocol. For QS (agr) reporter assays, peptide stock solutions in DMSO (1 mM) were serially diluted in DMSO, and 2 μL of solution was added to each well in a black 96-well plate (polystyrene microtiter plate, Costar). Agonism assays utilized the ΔagrD reporter strain, with 2 μL of 100 μM AIP (final concentration 1 μM) as a positive control and 2 μL of DMSO as a negative control. Antagonism assays utilized the EGD-e reporter strain, with 2 μL of DMSO as a positive control. In both assays, wells containing only BHI media served as negative controls for normalization. An overnight culture of bacteria was diluted 1:50 in fresh BHI, then 198 μL were transferred to each well (excluding the media control wells). Plates were then incubated at 37° C. for 24 hours with shaking at 200 rpm. Fluorescence of GFP (excitation at 500 nm, emission at 540 nm) and OD600 of each well was measured using BioTek Synergy 2 plate reader. Measurements were processed by subtracting background fluorescence (BHI media), correcting by OD600, and the normalizing using the 1 μM AIP or the DMSO control for the agonism and antagonism assays, respectively. Non-linear regression curves were fitted to the data sets in GraphPad Prism 7 by using variable slope (four-parameter) dose-response analysis to obtain potency, efficacy, and statistical information about the activity of tested peptides. Each peptide was tested with three technical replicates and three biological replicates. All data derived from fluorescent reporter strains are represented with data points signifying the mean and error bars signifying the standard deviation from all replicates.
Preparation and Validation of Listeria agr Reporter Strains. In order to facilitate profiling the native AIP and its analogs for agr activity, L. monocytogenes agr GFP reporters were designed and constructed as described above (see Materials and General Methods). Briefly, a plasmid containing the agr promoter region upstream of gfp was transformed into wild-type (EGD-e) and ΔagrD L. monocytogenes strains. The wild-type reporter naturally produces its own AIP and is able to activate AgrC, which may subsequently phosphorylate AgrA for productive binding to DNA and triggering the production of GFP (FIG. 1A). The ΔagrD reporter, lacking the ability to produce its own AIP and thereby activate AgrC, is unable to trigger substantial production of GFP. However, adding exogenous AIP to the ΔagrD reporter results in an increase of fluorescence, indicating agr activity has been restored.

Chain of L. monocytogenes AgrC (Q8YAR5 entry or part of it): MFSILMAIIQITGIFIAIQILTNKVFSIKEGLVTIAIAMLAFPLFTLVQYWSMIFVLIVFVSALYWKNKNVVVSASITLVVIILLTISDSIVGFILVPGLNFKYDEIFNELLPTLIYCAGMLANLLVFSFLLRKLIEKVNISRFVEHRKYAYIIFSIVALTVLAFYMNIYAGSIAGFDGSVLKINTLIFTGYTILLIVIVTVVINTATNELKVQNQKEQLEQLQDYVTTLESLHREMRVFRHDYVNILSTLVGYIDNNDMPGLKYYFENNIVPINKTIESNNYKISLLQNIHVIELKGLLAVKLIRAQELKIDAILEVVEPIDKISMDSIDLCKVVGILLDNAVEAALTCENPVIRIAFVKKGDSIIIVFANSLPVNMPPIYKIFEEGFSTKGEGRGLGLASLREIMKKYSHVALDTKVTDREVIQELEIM

Row | SMILES | Emax | agonism activity (in words) | loss in potency
1 | CSCC[C@@H]1NC(=O)[C@H](Cc2ccccc2)NC(=O)[C@@H](NC(=O)[C@H](CCCCN)NC(=O)[C@@H](N)CCCCN)CSC(=O)[C@H](C(C)C)NC(=O)[C@H](Cc2ccccc2)NC1=O [7-mer A2K, K-K-(C-F-M-F-V)] (H-KKCFMFV; thioester 3-C; N-terminus assumed) | 64.8% |  | 
2 | CSCC[C@@H]1NC(=O)[C@H](Cc2ccccc2)NC(=O)[C@H](NC(=O)[C@H](C)NC(=O)[C@@H](N)CCCCN)CSC(=O)[C@H](C(C)C)NC(=O)[C@H](Cc2ccccc2)NC1=O [7-mer C3dC, K-A-(dC-F-M-F-V)] (H-KA[dC]FMFV; thioester 3-C; N-terminus assumed) | 7.08% |  | 
3 | CSCC[C@H]1NC(=O)[C@H](Cc2ccccc2)NC(=O)[C@H](NC(=O)[C@H](C)NC(=O)[C@@H](N)CCCCN)CSC(=O)[C@H](C(C)C)NC(=O)[C@H](Cc2ccccc2)NC1=O [7-mer C3dC/M5dM, K-A-(dC-F-dM-F-V)] (H-KA[dC]F[dM]FV; thioester 3-C; N-terminus assumed) | 7.89% |  | 
4 | CSCC[C@H]1NC(=O)[C@H](Cc2ccccc2)NC(=O)[C@@H](NC(=O)[C@H](C)NC(=O)[C@@H](N)CCCCN)CSC(=O)[C@H](C(C)C)NC(=O)[C@H](Cc2ccccc2)NC1=O [7-mer M5dM, K-A-(C-F-dM-F-V)] (H-KACF[dM]FV; thioester 3-C; N-terminus assumed) | 71.9% |  | 
5 | CSCC[C@@H]1NC(=O)[C@H](Cc2ccccc2)NC(=O)[C@@H](NC(=O)[C@@H](N)CCCCN)CSC(=O)[C@H](C(C)C)NC(=O)[C@H](Cc2ccccc2)NC1=O [AIP A1K, K-(C-F-M-F-V)] (H-KCFMFV; thioester 2-C; N-terminus assumed) | 80% | partial agonists with slightly diminished agonistic activity | 
6 | CSCC[C@@H]1NC(=O)[C@H](Cc2ccccc2)NC(=O)[C@H](NC(=O)[C@@H](N)CCCCN)CSC(=O)[C@H](C(C)C)NC(=O)[C@H](Cc2ccccc2)NC1=O [AIP A1K/C2dC, K-(dC-F-M-F-V)] (H-K[dC]FMFV; thioester 2-C; N-terminus assumed) | 10.2% |  | 
7 | CSCC[C@H]1NC(=O)[C@H](Cc2ccccc2)NC(=O)[C@@H](NC(=O)[C@@H](N)CCCCN)CSC(=O)[C@H](C(C)C)NC(=O)[C@H](Cc2ccccc2)NC1=O [AIP A1K/M4dM, K-(C-F-dM-F-V)] (H-KCF[dM]FV; thioester 2-C; N-terminus assumed) | 74.1% |  | 
8 | CSCC[C@@H]1NC(=O)[C@H](Cc2ccccc2)NC(=O)[C@@H](NC(=O)[C@@H]2CCCN2)CSC(=O)[C@H](C(C)C)NC(=O)[C@H](Cc2ccccc2)NC1=O [AIP A1P, P-(C-F-M-F-V)] (H-PCFMFV; thioester 2-C; N-terminus assumed) | 76.8% | partial agonists with slightly diminished agonistic activity | 
9 | CSCC[C@@H]1NC(=O)[C@H](Cc2ccccc2)NC(=O)[C@@H](NC(=O)[C@@H](N)[C@@H](C)O)CSC(=O)[C@H](C(C)C)NC(=O)[C@H](Cc2ccccc2)NC1=O [AIP A1T, T-(C-F-M-F-V)] (H-TCFMFV; thioester 2-C; N-terminus assumed) | 88.1% | partial agonists with slightly diminished agonistic activity | 
10 | CSCC[C@@H]1NC(=O)[C@H](Cc2ccccc2)NC(=O)[C@@H](NC(=O)[C@@H](N)C(C)C)CSC(=O)[C@H](C(C)C)NC(=O)[C@H](Cc2ccccc2)NC1=O [AIP A1V, V-(C-F-M-F-V)] (H-VCFMFV; thioester 2-C; N-terminus assumed) | 109% | maintained the full activity of the parent AIP with enhanced potency | 
11 | CSCC[C@@H]1NC(=O)[C@H](Cc2ccccc2)NC(=O)[C@@H](NC(=O)[C@@H](C)N)CSC(=O)[C@H](C(C)C)NC(=O)[C@H](Cc2ccccc2)NC1=O [AIP A1dA, dA-(C-F-M-F-V)] (H-[dA]CFMFV; thioester 2-C; N-terminus assumed) | 58.8% |  | 
12 | CSCC[C@@H]1NC(=O)[C@H](Cc2ccccc2)NC(=O)[C@@H](NC(=O)[C@H](C)N)CNC(=O)[C@H](C(C)C)NC(=O)[C@H](Cc2ccccc2)NC1=O [AIP C2Dap, A-(Dap-F-M-F-V)] (H-A[Dap]FMFV; lactam 2-C; N-terminus assumed) | 92.9% | largely retains the activation activity of the native AIP | 10 fold
13 | CSCC[C@@H]1NC(=O)[C@H](Cc2ccccc2)NC(=O)[C@H](NC(=O)[C@H](C)N)CSC(=O)[C@H](C(C)C)NC(=O)[C@H](Cc2ccccc2)NC1=O [AIP C2dC, A-(dC-F-M-F-V)] (H-A[dC]FMFV; thioester 2-C; N-terminus assumed) | 41% | lost a substantial amount of agonism activity | three-fold
14 | CSCC[C@H]1NC(=O)[C@H](Cc2ccccc2)NC(=O)[C@H](NC(=O)[C@H](C)N)CSC(=O)[C@H](C(C)C)NC(=O)[C@H](Cc2ccccc2)NC1=O [AIP C2dC/M4dM, A-(dC-F-dM-F-V)] (H-A[dC]F[dM]FV; thioester 2-C; N-terminus assumed) | 35.7% |  | 
15 | CSCC[C@@H]1NC(=O)[C@H](Cc2ccccc2)NC(=O)[C@H](NC(=O)[C@H](C)N)CNC(=O)[C@H](C(C)C)NC(=O)[C@H](Cc2ccccc2)NC1=O [AIP C2dDap, A-(Dap-F-M-F-V)] (H-A[dDap]FMFV; lactam 2-C; N-terminus assumed) | 14.3% | little or no agr activation | 
16 | CSCC[C@@H]1NC(=O)[C@H](Cc2c[nH]cn2)NC(=O)[C@@H](NC(=O)[C@H](C)N)CSC(=O)[C@H](C(C)C)NC(=O)[C@H](Cc2ccccc2)NC1=O [AIP F3H, A-(C-H-M-F-V)] (H-ACHMFV; thioester 2-C; N-terminus assumed) | 12.4% |  | 
17 | CSCC[C@@H]1NC(=O)[C@H](CC(C)C)NC(=O)[C@@H](NC(=O)[C@H](C)N)CSC(=O)[C@H](C(C)C)NC(=O)[C@H](Cc2ccccc2)NC1=O [AIP F3L, A-(C-L-M-F-V)] (H-ACLMFV; thioester 2-C; N-terminus assumed) | 37.6% |  | 
18 | CSCC[C@@H]1NC(=O)[C@H](Cc2c[nH]c3ccccc23)NC(=O)[C@@H](NC(=O)[C@H](C)N)CSC(=O)[C@H](C(C)C)NC(=O)[C@H](Cc2ccccc2)NC1=O [AIP F3W, A-(C-W-M-F-V)] (H-ACWMFV; thioester 2-C; N-terminus assumed) | 60.6% |  | 
19 | CSCC[C@@H]1NC(=O)[C@H](Cc2ccc(O)cc2)NC(=O)[C@@H](NC(=O)[C@H](C)N)CSC(=O)[C@H](C(C)C)NC(=O)[C@H](Cc2ccccc2)NC1=O [AIP F3Y, A-(C-Y-M-F-V)] (H-ACYMFV; thioester 2-C; N-terminus assumed) | 47.4% |  | 
20 | CSCC[C@@H]1NC(=O)[C@H](Cc2ccccc2)NC(=O)[C@@H](NC(=O)[C@H](C)N)CSC(=O)[C@H](C(C)C)NC(=O)[C@H](Cc2c[nH]cn2)NC1=O [AIP F5H, A-(C-F-M-H-V)] (H-ACFMHV; thioester 2-C; N-terminus assumed) | 7.13% |  | 
21 | CSCC[C@@H]1NC(=O)[C@H](Cc2ccccc2)NC(=O)[C@@H](NC(=O)[C@H](C)N)CSC(=O)[C@H](C(C)C)NC(=O)[C@H](CC(C)C)NC1=O [AIP F5L, A-(C-F-M-L-V)] (H-ACFMLV; thioester 2-C; N-terminus assumed) | 64.8% |  | 
22 | CSCC[C@@H]1NC(=O)[C@H](Cc2ccccc2)NC(=O)[C@@H](NC(=O)[C@H](C)N)CSC(=O)[C@H](C(C)C)NC(=O)[C@H](Cc2c[nH]c3ccccc23)NC1=O [AIP F5W, A-(C-F-M-W-V)] (H-ACFMWV; thioester 2-C; N-terminus assumed) | 85.8% |  | 
23 | CSCC[C@@H]1NC(=O)[C@H](Cc2ccccc2)NC(=O)[C@@H](NC(=O)[C@H](C)N)CSC(=O)[C@H](C(C)C)NC(=O)[C@H](Cc2ccc(O)cc2)NC1=O [AIP F5Y, A-(C-F-M-Y-V)] (H-ACFMYV; thioester 2-C; N-terminus assumed) | 44.4% |  | 
